Test [1] deals with p16(Ink4a) in mLF and mVAT fibroblasts. Kind of test: Modulation of p16(Ink4a) in mouse lung and visceral adipose tissue-derived fibroblasts. It counts as cell-based. The note with it: for Modulation of p16(Ink4a): mLF and mVAT Senescent: 20Gy irradiation for senescence induction; for Modulation of p16(Ink4a): mLF and mVAT Proliferating: without irradiation. From the text: We next sought to determine whether immunomodulatory agents, and other small molecules, were capable of selectively modulating p16(Ink4a) expression in SAMs by comparing their effects on p16 expression in SAMs to that of mouse lung fibroblasts (mLF) and mouse visceral adipose tissue-derived fibroblasts (mVAT). […] Immunomodulatory agents cause little to no change in p16 expression in fibroblasts. For example, mouse fibroblasts are reported to respond to LPS and IL-4 (expressing TLR4 and IL-4R, respectively), yet these agents are unable to modulate p16 in fibroblasts.

For test [2], the system named is chronologically aging mice. Kind of test: Survival and frailty index of chronologically aging mice. The class given is in vivo, mouse. The note with it: for survival rates vs control groups: OT-82: after 6 courses, 111 weeks of age, asenins: treated weeks 77-97, at 112 weeks of age. The procedure:
FIG. 11. OT-82 effects on survival and frailty index of old mice. (A) Male and female mice were treated with OT-82 or with vehicle alone as a negative control. Survival was measured over the course of six treatments.
FIG. 12. Effects of asenins TA-3899 and TA-4812 on survival and frailty index of old mice. Results are provided on a background of FI of mice of the similar age, aged normally without any treatments (black color). Difference between FI of males receiving 3899 and intact mice is statistically significant (p=0.02).
Frailty Index (FI) was determined for individual mice as described previously (Antoch et al. Aging. 2017; 9: 1-12) using a 26 week-old group as a “young mouse” reference. For each mouse, various parameters were measured. These parameters include non-invasive measurements, including age, body weight, grip strength, diastolic blood pressure, and tail blood flow. Additional blood chemistry measurements were also determined, including white blood cell count, neutrophil count, neutrophil percentage, lymphocyte percentage, monocyte percentage, eosinophil percentage, red blood cell count, hemoglobin, hematocrit, mean corpuscular volume, mean corpuscular hemoglobin, mean corpuscular hemoglobin concentration, platelet count, and mean platelet volume. For each parameter mean value and standard deviation were calculated. Animals differing by more than one standard deviation (STDEV) from mean value in any single parameter were excluded from the reference group. Values for each measured parameter were compared with corresponding values for the reference group and assigned a score. The number of deficits an individual mouse expressed was calculated as a ratio of total number of parameters measured and this value is referred to as the frailty index.
Asenins TA-3899 and TA-4812 were evaluated for their effects on survival and frailty index in a model of chronologic aging mice. Treatment lasted for 20 weeks (weeks 77-97 of age). […] Frailty index of males was measured at week 109.

For test [3], the system named is adipose-derived mesenchymal stromal cells (AdMSC) from p16Ink4a/Luc mice. The test can be described thus: Luciferase and β-galactosidase activities in senescent and proliferating adipose-derived mesenchymal stromal cells. The class given is cell-based, mouse. From the text: FIG. 10. Elevated p16(Ink4a) and β-galactosidase is regulated by immunomodulatory agents in macrophages, but not in mesenchymal SCs. Primary cultures of adipose-derived mesenchymal stromal cells (AdMSC) isolated from p16^Ink4a/Luc mice were irradiated (20 Gy) and cultured for 10 days for senescence induction. Mock irradiated cells were used as a proliferating cell control. Response of senescent and proliferating AdMSCs to immunomodulatory agents were compared to that of peritoneal lavage cells elicited by our alginate bead model. A-D) Dose-response curves of LPS (top panels: […]) and Poly(I:C) (bottom panels: C&D) on p16(Ink4a) promoter-dependent luciferase activity (left panels: A&C) and beta-galactosidase activity measured via 4-MUG hydrolysis (right panels: B&D) after 72 hr treatment. No effect on viability was observed via CyQuant Direct assay (>80% viability). Results are shown as the mean±standard deviation for at least 3 experiments.
Primary cultures of adipose-derived mesenchymal stromal cells (mAdMSC) were established from the stromal vascular fraction of inguinal adipose tissues of young p16^LUC mice, as described. Isolated adherent cultures were maintained in DMEM/F12 medium supplemented with 15% FBS and 1× anti-biotic/anti-mycotic solution (Thermo Fisher Scientific) in a tri-gas tissue culture incubator at 37° C., 5% CO2 and 3% O2. Medium was change twice per week, and cell passaging performed when cells reached ˜80-90% confluency. For induction of senescence, passage 1 cells were irradiated in suspension at 20 Gy, and replated cultures were maintained at 21% 02.
We investigated whether the mechanisms regulating the expression of these traits in macrophages were similar to those found in SCs. Using cells isolated from p16^Ink4a/Luc mice, the dose-dependent response of luciferase and β-galactosidase activities to immunomodulatory stimuli in macrophages was compared to that of proliferating and irradiation-induced senescent adipose-derived mesenchymal stromal cells. […] LPS stimulation of alginate bead model-elicited macrophages reduced luciferase activity, with maximal inhibition (˜85%) observed at concentrations ≥1 ng/mL (FIG. 10A). In addition, β-galactosidase activity was reduced by 40% at 10 ng/mL (FIG. 10B).
In contrast, luciferase and β-galactosidase activities were unaltered in senescent and proliferating mesenchyme in response to LPS (up to 1 μg/mL) (FIGS. 10A&B).

As for `O=C(NCCCc1cn[nH]c1)c1ccc(-c2ccncc2)c(C#Cc2ccc(F)cc2)c1` [OT-82], in test [1], the “Modulation of p16(Ink4a): mLF and mVAT Senescent” value is recorded as “no change”; the “Modulation of p16(Ink4a): mLF and mVAT Proliferating” value is reported as “no change”. Besides, the “survival rates vs control groups” value in test [2] was “no effects on survival rates”. In test [2] (OT-82, chronically aged mice), the “frailty index (FI) of males” value is listed as “positive effects”. In addition, the “survival of treated males” value in test [2] (after 6 courses of treatment, 111 weeks of age (55% in vehicle control group)) turned out to be 45%. Further, the “survival of treated females” value in test [2] (after 6 courses of treatment, 111 weeks of age (60% in vehicle group)) is 65%.
For IFN-α, the “p16(Ink4a) response of senescent vs proliferating mesenchymal cells” value in test [3] was “lacking a differential response”.
For the molecule `COc1ccc(C2CC(=NO)c3c(SCc4ccccc4)sc(C(=O)NCc4cccc(F)c4)c3C2)cc1` (stereo not shown) [Example A1.6, 3-(Benzylthio)-N-(3-fluorobenzyl)-4-(hydroxyimino)-6-(4-methoxyphenyl)-4,5,6,7-tetrahydrobenzo[c]thiophene-1-carboxamide], in test [1], the “Modulation of p16(Ink4a): mLF and mVAT Senescent” value was “no change”; the “Modulation of p16(Ink4a): mLF and mVAT Proliferating” value is “no change”. Further, the “survival rates vs control groups” value in test [2] is “no statistical significance”.
Regarding Poly(I:C), in test [1], the “Modulation of p16(Ink4a): mLF and mVAT Senescent” value was “no change”; the “Modulation of p16(Ink4a): mLF and mVAT Proliferating” value is reported as “no change”.
For IL-13: M2-polarizing cytokine, the “p16(Ink4a) response of senescent vs proliferating mesenchymal cells” value in test [3] is “lacking a differential response”. In addition, in test [1], the “Modulation of p16(Ink4a): mLF and mVAT Senescent” value is recorded as “no change”; the “Modulation of p16(Ink4a): mLF and mVAT Proliferating” value is “no change”.
Regarding IL-4: M2-polarizing cytokine, the “p16(Ink4a) response of senescent vs proliferating mesenchymal cells” value in test [3] was “lacking a differential response”. Also, in test [1], the “Modulation of p16(Ink4a): mLF and mVAT Senescent” value is “no change”; the “Modulation of p16(Ink4a): mLF and mVAT Proliferating” value is reported as “no change”.

B1: IFN-γ: type II interferon, M1-inducing agent (protein, UniProt P01579 24-161, looked up)
Interferon gamma: QDPYVKEAENLKKYFNAGHSDVADNGTLFLGILKNWKEESDRKIMQSQIVSFYFKLFKNFKDDQSIQKSVETIKEDMNVKFFNSNKKKRDDFEKLTNYSVTDLNVQRKAIHELIQVMAELSPAAKTGKRKRSQMLFRG
As for B1, the “p16(Ink4a) response of senescent vs proliferating mesenchymal cells” value in test [3] was “lacking a differential response”.

The record behind these values is patent US20200123127A1, “REMOVAL OF SENESCENCE-ASSOCIATED MACROPHAGES” (EVERON BIOSCIENCES, INC., priority 2016, published 2020).
